Test results reported in patent US20230146455A1, “TREATMENT OF INFLAMMATORY DISEASES WITH PEPTIDES AND PHARMACEUTICAL COMPOSITIONS” (Yuyu Pharma, Inc., priority 2020, published 2023).
Several values for one entry are separate records, joined by “and”; a condition that tells them apart may be missing. Identical values can stand only once. Where a SMILES comes first, the peptide text is derived from it. [ ]: non-standard residue; d: D form. Hyp = O=C(O)[C@@H]1C[C@@H](O)CN1

Test system: human PBMCs
Assay: PBMC cell counts (total, live, viability; trypan blue, Countess) with and without LPS and test articles (Example 9)
Type: cell-based
Description: Treatment Human PBMCs were pretreated with YY-101, YDE-011 and YDE-043 or reference compound; Xiidra® at various concentration (ranging from 1 nM to 100 uM) for 2 h before stimulation. An equal volume of 0.5% DMSO was used as a vehicle control. Then, the cells were treated with LPS at 5 ug/ml. The supernatants from treated cells were harvested at 24 h and placed in a 96 well for Luminex cytokine & chemokine profiling using a Luminex 200 multiplex assay (Luminex; R&D system, USA).
The main study arm with triplicate wells per group in a 24-well plate: • 1. Blank • 2. PBMC: 0.5% DMSO • 3. PBMC+LPS (5 ug/ml) • 4. PBMC+YY-101 100 uM • 5. PBMC+YY-101 10 uM • 6. PBMC+YY-101 1 uM • 7. PBMC+YY-101 0.1 uM • 8. PBMC+YY-101 0.01 uM • 9. PBMC+LPS (5 ug/ml)+Xiidra®100 uM • 10. PBMC+LPS (5 ug/ml)+Xiidra® 10 uM • 11. PBMC+LPS (5 ug/ml)+Xiidra® 1 uM • 12. PBMC+LPS (5 ug/ml)+Xiidra®0.1 uM • 13. PBMC+LPS (5 ug/ml)+Xiidra®0.01 uM • 14. PBMC+LPS (5 ug/ml)+Xiidra®0.001 uM • 15. PBMC+LPS (5 ug/ml)+YY-101 100 uM • 16. PBMC+LPS (5 ug/ml)+YY-101 10 uM • 17. PBMC+LPS (5 ug/ml)+YY-101 1 uM • 18. PBMC+LPS (5 ug/ml)+YY-101 0.1 uM • 19. PBMC+LPS (5 ug/ml)+YY-101 0.01 uM • 20. PBMC+LPS (5 ug/ml)+YY-101 0.001 uM • 21. PBMC+LPS (5 ug/ml)+YDE-011 100 uM • 22. PBMC+LPS (5 ug/ml)+YDE-011 10 uM • 23. PBMC+LPS (5 ug/ml)+YDE-011 1 uM • 24. PBMC+LPS (5 ug/ml)+YDE-011 0.1 uM • 25. PBMC+LPS (5 ug/ml)+YDE-011 0.01 uM • 26. PBMC+LPS (5 ug/ml)+YDE-011 0.001 uM • 27. PBMC+LPS (5 ug/ml)+YDE-043 100 uM • 28. PBMC+LPS (5 ug/ml)+YDE-043 10 uM • 29. PBMC+LPS (5 ug/ml)+YDE-043 1 uM • 30. PBMC+LPS (5 ug/ml)+YDE-043 0.1 uM • 31. PBMC+LPS (5 ug/ml)+YDE-043 0.01 uM • 32. PBMC+LPS (5 ug/ml)+YDE-043 0.001 uM
The number of PBMCs was measured after 24 hr of treatment. The culture both and trypan blue were diluted 1:1 and 10 ul was added to Countess cell counting chamber (Thermo fisher, USA). The number of PBMCs was measured using a Countess automated cell counter (Thermo fisher, USA).

[1] = PBMC + LPS(5 ug/ml) + test article 100 uM, Mean
[2] = PBMC + LPS(5 ug/ml) + test article 100 uM, single replicates
[3] = PBMC + LPS(5 ug/ml), test article 0.001 uM, Mean
[4] = PBMC + LPS(5 ug/ml), test article 0.001 uM, single replicates
[5] = PBMC + LPS(5 ug/ml), test article 0.01 uM, Mean
[6] = PBMC + LPS(5 ug/ml), test article 0.01 uM, single replicates
[7] = PBMC + LPS(5 ug/ml), test article 0.1 uM, Mean
[8] = PBMC + LPS(5 ug/ml), test article 0.1 uM, single replicates
[9] = PBMC + LPS(5 ug/ml), test article 1 uM, Mean
[10] = PBMC + LPS(5 ug/ml), test article 1 uM, single replicates
[11] = PBMC + LPS(5 ug/ml), test article 10 uM, Mean
[12] = PBMC + LPS(5 ug/ml), test article 10 uM, single replicates
[13] = PBMC + LPS(5 ug/ml), test article 100 uM, Mean
[14] = PBMC + LPS(5 ug/ml), test article 100 uM, single replicates

CC(C)C[C@H](NC(=O)[C@H](CCC(N)=O)NC(=O)CNC(=O)[C@@H]1C[C@@H](O)CN1)C(=O)NCC(=O)O [YDE-043] (H-[Hyp]GQLG-OH; N-terminus and C-terminus assumed)
Live cell (PBMC + LPS(5 ug/ml) + test article 10 uM, single replicates (1st, 2nd, 3rd)): 5.2 10^5/ml and 5.4 10^5/ml and 5.6 10^5/ml | Live cell [1]: 6.3 10^5/ml | Live cell (10^5/ml) [1]: 6.3 10^5/ml | Live cell, Mean [1]: 6.3 10^5/ml | Live cell (PBMC + LPS(5 ug/ml) + test article 100 uM, individual replicates): 6.2 10^5/ml and 6.4 10^5/ml | Live cell (PBMC + LPS(5 ug/ml) + test article 100 uM, individual replicates (1st, 2nd, 3rd)): 6.2 10^5/ml and 6.4 10^5/ml | Live cell [2]: 6.2 10^5/ml and 6.4 10^5/ml | Live cell (10^5/ml) [2]: 6.2 10^5/ml and 6.4 10^5/ml | Live cell (PBMC + LPS(5 ug/ml) + test article 100 uM, single replicates (1st, 2nd, 3rd)): 6.2 10^5/ml and 6.4 10^5/ml | Live cell (PBMC + LPS(5 ug/ml), 0.001 uM, Mean): 5.0 10^5/ml | Live cell (PBMC + LPS(5 ug/ml), 0.001 uM, single replicates): 4.4 10^5/ml and 6.0 10^5/ml and 4.6 10^5/ml | Live cell (PBMC + LPS(5 ug/ml), 0.01 uM, Mean): 5.4 10^5/ml | Live cell (PBMC + LPS(5 ug/ml), 0.01 uM, single replicates): 4.5 10^5/ml and 6.6 10^5/ml and 5.0 10^5/ml | Live cell (PBMC + LPS(5 ug/ml), 0.1 uM, Mean): 5.4 10^5/ml | Live cell (PBMC + LPS(5 ug/ml), 0.1 uM, single replicates): 5.0 10^5/ml and 5.6 10^5/ml (2×) | Live cell (PBMC + LPS(5 ug/ml), 1 uM, Mean): 5.3 10^5/ml | Live cell (PBMC + LPS(5 ug/ml), 1 uM, single replicates): 5.8 10^5/ml and 4.8 10^5/ml and 5.3 10^5/ml | Live cell (PBMC + LPS(5 ug/ml), 10 uM, Mean): 5.4 10^5/ml | Live cell (PBMC + LPS(5 ug/ml), 10 uM, single replicates): 5.2 10^5/ml and 5.4 10^5/ml and 5.6 10^5/ml | Live cell (PBMC + LPS(5 ug/ml), 100 uM, Mean): 6.3 10^5/ml | Live cell (PBMC + LPS(5 ug/ml), 100 uM, single replicates): 6.2 10^5/ml and 6.4 10^5/ml | Live cell [3]: 5.0 10^5/ml | Total cell count [3]: 6.3 10^5/ml | Live cell [4]: 4.4 10^5/ml and 6.0 10^5/ml and 4.6 10^5/ml | Total cell count [4]: 5.6 10^5/ml (2×) and 7.8 10^5/ml | Viability [4]: 79.0% and 77.0% and 82.0% | Live cell [5]: 5.4 10^5/ml | Total cell count [5]: 6.9 10^5/ml | Live cell [6]: 4.5 10^5/ml and 6.6 10^5/ml and 5.0 10^5/ml | Total cell count [6]: 6.2 10^5/ml and 7.3 10^5/ml and 7.2 10^5/ml | Live cell [7]: 5.4 10^5/ml | Total cell count [7]: 6.6 10^5/ml | Live cell [8]: 5.0 10^5/ml and 5.6 10^5/ml | Total cell count [8]: 6.8 10^5/ml and 6.4 10^5/ml and 6.5 10^5/ml | Viability [8]: 74.0% and 87.0% and 85.0% | Live cell [9]: 5.3 10^5/ml | Total cell count [9]: 6.8 10^5/ml | Live cell [10]: 5.8 10^5/ml and 4.8 10^5/ml and 5.3 10^5/ml | Total cell count [10]: 6.9 10^5/ml and 5.7 10^5/ml and 7.8 10^5/ml | Viability [10]: 83.0% (2×) and 68.0% | Live cell [11]: 5.4 10^5/ml | Total cell count [11]: 6.4 10^5/ml | Live cell [12]: 5.2 10^5/ml and 5.4 10^5/ml and 5.6 10^5/ml | Total cell count [12]: 6.4 10^5/ml and 6.7 10^5/ml and 6.2 10^5/ml | Viability [12]: 80.0% (2×) and 90.0% | Live cell [13]: 6.3 10^5/ml | Total cell count [13]: 7.6 10^5/ml | Live cell [14]: 6.2 10^5/ml and 6.4 10^5/ml | Total cell count [14]: 7.0 10^5/ml and 8.1 10^5/ml | Viability [14]: 89.0% and 80.0% | which treatments consistently affected the total and live number of PBMCs or the percent viability (in words) (up to 100 μM, 24-hour treatment): none of
